Laboratory results taken from ChEMBL document CHEMBL4130634, “Discovery of Reversible DNA Methyltransferase and Lysine Methyltransferase G9a Inhibitors with Antitumoral in Vivo Efficacy” (J Med Chem, 2018).

Experiments:
[1] = Growth inhibition of human LAL-CUN-2 cells after 48 hrs by MTS assay; format: functional
OCI-Ly3 = test: Growth inhibition of human OCI-LY3 cells after 48 hrs by MTS assay; format: functional; settings: OCI-Ly3, 48 h
[2] = Growth inhibition of human CEMO1 cells after 48 hrs by MTS assay; format: functional
[3] = Half life in human liver microsomes at 1 uM preincubated for 10 mins followed by NADP addition after 20 mins by LC-MS/MS analysis; format: ADME, microsome; settings: liver microsomes
[4] = Metabolic stability in human liver microsomes assessed as parent compound remaining at 1 uM preincubated for 10 mins followed by NADP addition after 20 mins by LC-MS/MS analysis; format: ADME, microsome; settings: liver microsomes, read-out: Stability
[5] = AUC (0 to 24 hrs) in RARG2-/-gammac-/- Balb/c mouse at 5 mg/kg, iv administered as single dose by LC-MS/MS analysis; format: ADME, organism-based; parameters: dose 5 mg/kg, time < 24 hr, route intravenous; settings: in vivo
[6] = Half life in mouse liver microsomes at 1 uM preincubated for 10 mins followed by NADP addition after 20 mins by LC-MS/MS analysis; format: ADME, microsome
[7] = target: T1, Histone-lysine N-methyltransferase EHMT2 (Homo sapiens, UniProt Q96KQ7); test: Inhibition of human G9a using biotinylated-H3K9 peptide as substrate after 1 hr in presence of SAM by TR-FRET assay
T1 sequence (Q96KQ7 whole entry): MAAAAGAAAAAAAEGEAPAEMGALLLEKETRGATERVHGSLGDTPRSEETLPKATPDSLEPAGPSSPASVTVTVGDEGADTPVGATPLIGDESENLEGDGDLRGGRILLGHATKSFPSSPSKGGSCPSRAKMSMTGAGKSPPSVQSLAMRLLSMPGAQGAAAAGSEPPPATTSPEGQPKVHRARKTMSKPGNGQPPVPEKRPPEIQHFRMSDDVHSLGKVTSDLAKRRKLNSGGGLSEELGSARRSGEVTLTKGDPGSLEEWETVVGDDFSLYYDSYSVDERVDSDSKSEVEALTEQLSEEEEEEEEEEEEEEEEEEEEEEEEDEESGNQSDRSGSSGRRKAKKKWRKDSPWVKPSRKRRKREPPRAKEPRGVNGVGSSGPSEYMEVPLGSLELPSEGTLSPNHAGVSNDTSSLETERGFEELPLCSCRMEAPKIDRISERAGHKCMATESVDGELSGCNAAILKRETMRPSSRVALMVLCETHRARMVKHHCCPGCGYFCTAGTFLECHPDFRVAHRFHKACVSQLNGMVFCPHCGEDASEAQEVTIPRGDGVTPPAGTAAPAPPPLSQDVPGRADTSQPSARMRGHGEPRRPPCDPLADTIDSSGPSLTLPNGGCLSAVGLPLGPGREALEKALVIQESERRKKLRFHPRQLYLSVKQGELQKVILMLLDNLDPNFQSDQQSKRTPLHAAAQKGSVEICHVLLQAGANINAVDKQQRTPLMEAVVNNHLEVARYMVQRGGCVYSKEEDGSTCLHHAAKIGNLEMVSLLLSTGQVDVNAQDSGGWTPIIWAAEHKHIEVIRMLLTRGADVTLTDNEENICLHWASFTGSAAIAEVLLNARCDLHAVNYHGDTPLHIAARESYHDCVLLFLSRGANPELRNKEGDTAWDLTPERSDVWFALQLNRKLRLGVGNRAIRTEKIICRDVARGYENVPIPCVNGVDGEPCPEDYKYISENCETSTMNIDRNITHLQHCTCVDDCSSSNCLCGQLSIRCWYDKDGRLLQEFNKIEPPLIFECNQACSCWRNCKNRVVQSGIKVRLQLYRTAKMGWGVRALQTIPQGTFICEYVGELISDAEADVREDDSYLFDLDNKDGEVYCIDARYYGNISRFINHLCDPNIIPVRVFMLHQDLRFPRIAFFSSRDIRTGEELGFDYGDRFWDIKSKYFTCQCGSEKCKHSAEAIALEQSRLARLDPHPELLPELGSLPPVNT

THLE-2 = test: Growth inhibition of human THLE2 cells after 72 hrs by MTS assay; format: cell-based; settings: thle-2, 72 h
[8] = target: DNA (cytosine-5)-methyltransferase 1 (Homo sapiens, UniProt P26358); test: Inhibition of human DNMT1 using polydeoxyinosine polydeoxycytosine DNA as substrate after 15 mins in presence of SAM by TR-FRET assay
[9] = Clearance in RARG2-/-gammac-/- Balb/c mouse at 5 mg/kg, iv administered as single dose by LC-MS/MS analysis; format: ADME, organism-based; settings: in vivo
OCI-Ly10 = test: Growth inhibition of human OCI-LY10 cells after 48 hrs by MTS assay; format: functional; settings: OCI-Ly10, 48 h
CYP1A2 = target: T2, CYP1A2 (Homo sapiens, UniProt P05177); test: Inhibition of CYP1A2 in human liver microsomes at 10 uM after 10 mins in presence of NADPH by LC-MS/MS analysis relative to control; format: ADME
T2 sequence (P05177 whole entry): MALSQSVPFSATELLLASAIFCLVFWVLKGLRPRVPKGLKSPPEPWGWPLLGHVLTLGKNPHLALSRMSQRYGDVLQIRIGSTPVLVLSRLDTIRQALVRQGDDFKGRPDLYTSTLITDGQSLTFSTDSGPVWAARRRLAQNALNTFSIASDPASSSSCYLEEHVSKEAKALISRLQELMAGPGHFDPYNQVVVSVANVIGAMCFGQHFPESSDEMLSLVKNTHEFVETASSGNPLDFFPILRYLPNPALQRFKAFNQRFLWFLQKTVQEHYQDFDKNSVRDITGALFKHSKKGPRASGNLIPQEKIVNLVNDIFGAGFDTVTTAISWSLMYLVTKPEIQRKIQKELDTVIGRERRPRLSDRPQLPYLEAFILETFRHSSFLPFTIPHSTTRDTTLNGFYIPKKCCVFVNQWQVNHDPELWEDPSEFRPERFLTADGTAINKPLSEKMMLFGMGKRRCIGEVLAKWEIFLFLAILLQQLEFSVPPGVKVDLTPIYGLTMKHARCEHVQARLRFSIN

DNA (cytosine-5)-methyltransferase 1, sequence (P26358 whole entry): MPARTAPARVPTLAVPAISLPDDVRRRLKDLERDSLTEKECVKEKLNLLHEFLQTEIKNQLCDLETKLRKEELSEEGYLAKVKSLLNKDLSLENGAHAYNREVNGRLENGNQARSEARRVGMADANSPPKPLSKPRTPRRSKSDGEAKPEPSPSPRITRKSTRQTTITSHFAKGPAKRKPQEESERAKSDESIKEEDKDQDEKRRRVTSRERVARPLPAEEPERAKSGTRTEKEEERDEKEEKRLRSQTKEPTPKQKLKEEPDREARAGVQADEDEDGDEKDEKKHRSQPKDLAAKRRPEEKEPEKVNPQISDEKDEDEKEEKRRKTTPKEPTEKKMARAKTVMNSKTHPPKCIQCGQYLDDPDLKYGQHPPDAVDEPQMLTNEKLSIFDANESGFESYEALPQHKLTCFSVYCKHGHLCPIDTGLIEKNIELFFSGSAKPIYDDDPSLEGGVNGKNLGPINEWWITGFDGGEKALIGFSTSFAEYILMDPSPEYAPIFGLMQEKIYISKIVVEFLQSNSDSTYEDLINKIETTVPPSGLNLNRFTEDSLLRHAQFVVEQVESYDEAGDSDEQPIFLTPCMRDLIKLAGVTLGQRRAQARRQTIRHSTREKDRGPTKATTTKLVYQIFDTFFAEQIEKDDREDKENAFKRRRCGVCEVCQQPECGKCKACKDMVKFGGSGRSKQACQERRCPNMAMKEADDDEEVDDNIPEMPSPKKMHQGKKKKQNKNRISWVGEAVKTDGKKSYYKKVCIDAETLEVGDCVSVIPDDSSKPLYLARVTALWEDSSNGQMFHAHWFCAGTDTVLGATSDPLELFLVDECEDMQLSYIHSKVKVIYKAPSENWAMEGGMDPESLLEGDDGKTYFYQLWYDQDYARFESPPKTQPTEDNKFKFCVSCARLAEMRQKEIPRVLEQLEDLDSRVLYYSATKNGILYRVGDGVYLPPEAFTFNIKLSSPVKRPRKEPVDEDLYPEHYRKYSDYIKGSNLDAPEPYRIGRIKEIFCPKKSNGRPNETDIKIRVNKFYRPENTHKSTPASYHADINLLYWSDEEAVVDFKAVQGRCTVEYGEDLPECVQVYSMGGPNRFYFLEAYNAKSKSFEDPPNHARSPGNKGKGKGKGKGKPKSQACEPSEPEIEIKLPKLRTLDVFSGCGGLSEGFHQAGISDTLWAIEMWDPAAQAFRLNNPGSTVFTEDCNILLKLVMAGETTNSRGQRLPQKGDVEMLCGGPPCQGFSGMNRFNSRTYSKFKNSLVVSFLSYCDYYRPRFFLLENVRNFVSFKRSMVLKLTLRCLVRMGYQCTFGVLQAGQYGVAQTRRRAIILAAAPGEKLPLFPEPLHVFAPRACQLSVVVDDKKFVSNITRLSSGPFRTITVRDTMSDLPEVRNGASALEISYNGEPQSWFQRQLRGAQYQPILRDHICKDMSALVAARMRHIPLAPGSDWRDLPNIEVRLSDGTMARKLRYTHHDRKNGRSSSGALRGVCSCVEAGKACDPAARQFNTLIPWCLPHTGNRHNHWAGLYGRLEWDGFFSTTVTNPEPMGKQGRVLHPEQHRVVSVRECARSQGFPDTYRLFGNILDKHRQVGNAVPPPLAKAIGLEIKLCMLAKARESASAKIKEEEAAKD

For `COc1cc2c(NC3CCN(C4CC4)CC3)cc(-c3ccc(C)o3)nc2cc1OCCCN1CCCC1`, the GI50 [1] was 1380 nM, the GI50 (OCI-Ly3) was 187 nM and the GI50 [2] was 453 nM. The half-life at 1 µM [3] was greater than 144 min, the remaining at 20 min, 1 µM [4] was 97% and the AUC(0-t) at 24 h [5] was 8.79 µM·h. The half-life at 1 µM [6] was 6 min, the IC50 [7] was 22 nM and the LC50 (THLE-2) was 455 nM. It also gave an IC50 [8] of 413 nM, a clearance [9] of 15 mL/min/kg and a GI50 (OCI-Ly10) of 94 nM. For the same compound, the inhibition at 10 min, 10 µM (CYP1A2) was 28.6%.
